Experimental data from US10881679B2, “Application of a phillyrin/phillygeninin composition in preparing a medicine or health care product for alleviating or/and treating viral diseases, and medicine or health care product for treating viral diseases” (priority 2014, dated 2021).
Where two headings read alike, the source gives them in different places. Marks after values point to notes of the source that are not given here.

How the values were obtained:
[1] = tested on: influenza virus; assay: Impact on virus-induced cytopathic effect in Vero cells (MTT): influenza virus; assay type: cell-based
[2] = tested on: parainfluenza virus; assay: Impact on virus-induced cytopathic effect in Vero cells (MTT): parainfluenza virus; assay type: cell-based; conditions: parainfluenza virus 100TCID50, Vero, 72 h; drug g/L as Table 1-2
[3] = tested on: influenza virus; assay type: in vivo, Kunming mice; conditions: 13.0 mg/kg/d i.g. 5 days
[4] = tested on: sweat secretion of rat paws; assay: Sweat secretion of rat paws (coloring method); assay type: in vivo, Wistar rats; conditions: dose not given
From the text: The test is based on a mechanism that distribution of sweat glands is present in footpads of rat paws, the amount of sweat secretion and variation thereof can be observed by using a mechanism that a purple color can be produced by contacting iodine and starch when encountered with sweat.
500 Wistar rats with equal male and female number were used, weighing of 120˜150 g. These rats were randomly divided into 50 groups by weight and gender, i.e., namely 5 groups for the control groups (0.5% methyl cellulose), 5 groups for phillyrin groups, 5 groups for phillygeninin groups, 5 groups for the low, medium and high dose groups (2.5, 5, 10 mg/kg, respectively) of phillyrin/phillygeninin compositions A and B respactively, and 5 groups for the positive drug pilocarpine groups (35 mg/kg). Each group has 10 rats, 10 groups of rates are used for each test, which has 5 time periods (1, 5, 10, 15 and 20 min). The rats were placed into a self-made rat fixation bag, and both hind limbs of the rats were exposed. Dirt on the right paws was gently cleaned away using cotton swabs containing anhydrous alcohol. Pilocarpine solution was administered by subcutaneous injection, the remaining groups were subjected to intragastric administration. At 1 h (30 min for the pilocarpine group) after administration, pre-existing sweat and sweat generated due to struggle on the right paw of each rat in each group was gently wiped away with dry cotton swabs, then the paws were coated with solution A (dissolving 2 g iodine in 100 ml anhydrous alcohol) of Hetian-gaoyuanshi's reagent. After complete dryness, the paws were thinly coated with solution B (uniform mixture of 50 g soluble starch and 100 ml castor oil) of Hetian-gaoyuanshi's reagent. The color and number of dark purple coloring spots (i.e. sweat spots) were carefully observed at 1, 5, 10, 15 and 20 min after the coating of the solution B respectively with magnifying glass. After the test was completed, statistical treatment was performed according to the rank sum test with two-sample comparison, thereby comparing the differences among the various groups.

[5] = tested on: sweat gland epithelial cells of rat paws; assay: Sweat secretion of rat paws (histomorphological observation method); assay type: in vivo, Wistar rats; conditions: dose not given; i.g., 1 h after administration
From the text: This test is based on a mechanism that when a rat is in an excited state, in addition to the increase of sweat secretion of sweat glands, the morphology of sweat gland epithelial cells changes accordingly. Under an optical microscope, it can be seen that the sweat gland epithelial cell vacuoles increase in number and expand. Under an electron microscope, such expanded vacuoles appear to be mitochondria in the sweat gland epithelial cell swelling, breakage and fusion and expansion of secretory vesicle. Therefore, through histomorphological observation of sweat gland epithelial tissue of a rat paw, secretory activities of the sweat gland can be known.
300 Wistar rats with equal male and female number, weighing 120˜160 g were used. These rats were randomly divided into 30 groups by weight and gender: control groups (0.5% of methyl cellulose), phillygeninin groups, phillyrin groups, low, medium and high dose groups (2.5, 5, 10 mg/kg) of phillyrin/phillygeninin compositions A and B separately, and positive drug pilocarpine groups (35 mg/kg). Each group has 10 rats, the test is repeated 3 times for each group. Pilocarpine solution was administered by subcutaneous injection, the remaining groups were subjected to intragastric administration. After administration of the 0.5% of methyl cellulose in the control group for one hour, after administration of the pilocarpine in the positive drug group for 30 min, and after administration of the phillyrin, the phillygeninin and the phillyrin/phillygeninin composition for one hour, the right hind limb was instantly cut off at the ankle joint to immediately take down the footpad of the right hind limb and placed into 10% of formaldehyde solution. The footpads were fixed, dehydrated, embedded, sliced and stained with HE by using conventional methods. Changes in sweat gland epithelial cells of the rat paws from each group were observed under an optical microscope, to mainly observe the percentage of vacuolization. The differences among the various groups was performed through X^2 test for statistical analysis. The above test was repeated 3 times. Percentage of vacuolization=(the number of vacuolized sweat glands)/(the number of sweat glands observed)×100%.

[6] = 10 min after coating solution B
[7] = 15 min after coating solution B
[8] = 20 min after coating solution B

SMILES	antiviral effective rate (ER %) [2]	Hemagglutination titer (InX) [3]	Inhibition rate (%) of hemagglutination titer [3] [%]	Animal number of sweat spots of level + ([4]; 1 min after coating solution B) [rats]	Animal number of sweat spots of level ++ ([4]; 1 min after coating solution B) [rats]	Animal number of sweat spots of level +++ ([4]; 1 min after coating solution B) [rats]	Animal number of sweat spots of level ++++ ([4]; 1 min after coating solution B) [rats]	Animal number of sweat spots of level − ([4]; 1 min after coating solution B) [rats]	Animal number of sweat spots of level + ([4]; 5 min after coating solution B) [rats]	Animal number of sweat spots of level ++ ([4]; 5 min after coating solution B) [rats]	Animal number of sweat spots of level +++ ([4]; 5 min after coating solution B) [rats]	Animal number of sweat spots of level ++++ ([4]; 5 min after coating solution B) [rats]	Animal number of sweat spots of level − ([4]; 5 min after coating solution B) [rats]	Animal number of sweat spots of level + [4, 6] [rats]	Animal number of sweat spots of level ++ [4, 6] [rats]	Animal number of sweat spots of level +++ [4, 6] [rats]	Animal number of sweat spots of level ++++ [4, 6] [rats]	Animal number of sweat spots of level − [4, 6] [rats]	Animal number of sweat spots of level + [4, 7] [rats]	Animal number of sweat spots of level ++ [4, 7] [rats]	also measured
COc1cc([C@H]2OC[C@H]3[C@@H]2CO[C@H]3c2ccc(OC)c(OC)c2)ccc1O [Phillygeninin, phillygeninin]	80.72** %	22.61 ± 1.059	30.22	1	3	3	3	0	1	3	2	4	0	1	3	1	5	0	1	1	antiviral effective rate (ER %) [1]: 75.35** %; Animal number of sweat spots of level +++ [4, 7]: 3 rats; Animal number of sweat spots of level ++++ [4, 7]: 5 rats; Animal number of sweat spots of level − [4, 7]: 0 rats; Animal number of sweat spots of level + [4, 8]: 0 rats; Animal number of sweat spots of level ++ [4, 8]: 1 rats; Animal number of sweat spots of level +++ [4, 8]: 4 rats; Animal number of sweat spots of level ++++ [4, 8]: 5 rats; Animal number of sweat spots of level − [4, 8]: 0 rats; Number of sweat glands of vacuole [5]: 79; percentage of vacuolization (%) [5]: 20.26** %
COc1ccc([C@H]2OCC3C2CO[C@H]3c2ccc(O[C@@H]3OC(CO)[C@@H](O)[C@H](O)C3O)c(OC)c2)cc1OC (some centres unmarked) [phillyrin]	84.96** %	22.06 ± 1.120	31.90	2	2	2	4	0	1	2	2	5	0	1	1	3	5	0	1	2	antiviral effective rate (ER %) ([1]; influenza virus 100TCID50, Vero, 72 h, drug g/L (Table 1-2): phillyrin 0.01, Phillygeninin 0.02, compositions A, B 0.01, Ribavirin 0.70, oseltamivir phosphate 0.30): 75.38** %; Animal number of sweat spots of level +++ [4, 7]: 4 rats; Animal number of sweat spots of level ++++ [4, 7]: 5 rats; Animal number of sweat spots of level − [4, 7]: 0 rats; Animal number of sweat spots of level + [4, 8]: 0 rats; Animal number of sweat spots of level ++ [4, 8]: 4 rats; Animal number of sweat spots of level +++ [4, 8]: 0 rats; Animal number of sweat spots of level ++++ [4, 8]: 6 rats; Animal number of sweat spots of level − [4, 8]: 0 rats; Number of sweat glands of vacuole [5]: 86; percentage of vacuolization (%) [5]: 22.15** %
